# Literature values as cited in PMC5488394, “30 YEARS OF THE MINERALOCORTICOID RECEPTOR: Mineralocorticoid receptor antagonists: 60 years of research and development” (The Journal of Endocrinology, 2017).
# Like-named read-outs stand apart in the source and are kept apart here.
# Tests used:
# [1] = cited from earlier work; for mean half-life of spironolactone metabolite: healthy volunteers; for peak absolute plasma concentration / peak relative plasma concentration: steady state after oral 100 mg spironolactone per day
# S810L MR mutant = test system: S810L MR mutant; parameters: method as in Geller et al. 2000, Amazit et al. 2015; conditions: ref Geller et al. 2000, Amazit et al. 2015; cited from earlier work
# [2] = parameters: method as in Liddle 1957; conditions: patient with congestive heart failure and patient with Addison's disease; ref Liddle 1957; cited from earlier work
# [3] = test system: mineralocorticoid-dependent sodium retention; conditions: cited from earlier work
# [4] = test system: estrogen-primed immature rabbits; parameters: method as in Hertz & Tullner 1958; conditions: Clauberg assay; ref Hertz & Tullner 1958; cited from earlier work
# MR = test system: MR; parameters: method as in Losert et al. 1985; conditions: ref Losert et al. 1985; cited from earlier work
# [5] = test system: Dahl salt-sensitive hypertensive rats; parameters: method as in Arai et al. 2015b; conditions: ref Arai et al. 2015b, cited from earlier work; for cardiorenal protection: 100 mg/kg
# [6] = parameters: method as in de Gasparo et al. 1989; conditions: fludrocortisone challenge, healthy volunteers; 50 mg vs 25 mg spironolactone; ref de Gasparo et al. 1989; cited from earlier work
# [7] = ref Pitt et al. 2003, cited from earlier work
# [8] = parameters: method as in Weinberger et al. 2002; conditions: 100 mg OD or 50 mg BID, hypertensive patients; ref Weinberger et al. 2002; cited from earlier work
# [9] = radioactively labeled, rats; ref Kolkhof & Borden 2012; cited from earlier work
# human MR = test system: human MR; parameters: method as in Arai et al. 2015a; conditions: ref Arai et al. 2015a; read-out: IC50, block of aldosterone-induced transcriptional activation of human MR; cited from earlier work
# [10] = cited from earlier work
# human plasma proteins = conditions: cited from earlier work
# DOCA/salt-loading rats = conditions: cited from earlier work
# [11] = test system: MR over other steroid hormone receptors; parameters: method as in Arai et al. 2015a; conditions: in vitro; ref Arai et al. 2015a; cited from earlier work
# [12] = cited from earlier work; remark: listed apart in the source
# aldosterone receptor = test system: aldosterone receptor; parameters: method as in Claire et al. 1979; conditions: ref Claire et al. 1979; cited from earlier work
# rats = conditions: cited from earlier work
# dogs and monkeys = conditions: ref Lumb et al. 1978; cited from earlier work
# [13] = parameters: method as in Kolkhof & Borden 2012; conditions: mice; ref Kolkhof & Borden 2012; cited from earlier work
# [14] = parameters: method as in Pitt et al. 1999; conditions: low dose on top of standard of care; ref Pitt et al. 1999; cited from earlier work
# [15] = test system: aldosterone-induced cardiac necrosis; parameters: method as in Selye 1960; conditions: rats; ref Selye 1960; cited from earlier work
# rat androgen receptor = test system: rat androgen receptor; parameters: method as in Laurent et al. 1983; conditions: ref Laurent et al. 1983; cited from earlier work
# urinary Na+/K+ ratio = test system: urinary Na+/K+ ratio; parameters: method as in Casals-Stenzel et al. 1984; conditions: rats, on average; ref Casals-Stenzel et al. 1984; cited from earlier work
# progesterone receptor = test system: progesterone receptor; parameters: method as in Laurent et al. 1983; conditions: estrogen-primed rabbit uterus; ref Laurent et al. 1983; cited from earlier work
# [16] = test system: rat renal cytoplasmatic MR; parameters: method as in Casals-Stenzel et al. 1984; conditions: ref Casals-Stenzel et al. 1984; cited from earlier work
# [17] = ref Karim 1978, Garthwaite & McMahon 2004
# [18] = single oral dose 50 mg, healthy subjects, ref Thosar et al. 2003
smiles,measurement,setting,value
"CS[C@H]1[C@@H]2[C@H](CC[C@@]3(C)[C@H]2CC[C@@]32CCC(=O)O2)[C@@]2(C)CCC(=O)C=C2[C@@H]1O [HTMS, 6β-hydroxy-7α-thiomethyl-spironolactone]",mean half-life of spironolactone metabolite,[1]; [17],15.0 h
same,peak absolute plasma concentration,[1]; ref Gardiner et al. 1989,125 ng/mL
same,peak relative plasma concentration,[1]; ref Gardiner et al. 1989,16.1%
CC(=O)[C@H]1CC[C@H]2[C@@H]3CCC4=CC(=O)CC[C@]4(C)[C@H]3CC[C@]12C [Progesterone],effect on S810L MR mutant,S810L MR mutant,paradoxically activate
"C[C@]12CCC(=O)C=C1CC[C@@H]1[C@@H]2CC[C@@]2(C)[C@H]1CC[C@@]21CCC(=O)O1 [SC-5233, 3-(3-oxo-17β-hydroxy-4-androsten-17α-yl)propionic acid γ-lactone]",natriuretic activity in patients,[2],natriuretic activity
same,antagonistic efficacy in mineralocorticoid-dependent models,"[3]; strictly dependent on presence of a mineralocorticoid, ref Kagawa et al. 1959",convincing antagonistic efficacy
same,in vivo progestational activity,[4],substantial in vivo progestational activity
C[C@]12CC[C@H]3[C@@H](CCC4=CC(=O)CC[C@@H]43)[C@@H]1CC[C@@]21CCC(=O)O1 [SC-8109],potency on mineralocorticoid-dependent sodium retention relative to SC-5233,"[3]; adrenalectomized rats, ref Kagawa et al. 1957",more potent than SC-5233
same,in vivo progestational activity,[4],substantial in vivo progestational activity
"CS[C@@H]1CC2=CC(=O)CC[C@]2(C)[C@H]2CC[C@@]3(C)[C@@H](CC[C@@]34CCC(=O)O4)[C@H]12 [TMS, 7α-thiomethyl-spironolactone]",mean half-life of spironolactone metabolite,[1]; [17],13.8 h
same,peak absolute plasma concentration,[1]; ref Gardiner et al. 1989,391 ng/mL
same,peak relative plasma concentration,[1]; ref Gardiner et al. 1989,50.3%
C[C@]12CCC(=O)C=C1C=C[C@@H]1[C@@H]2CC[C@@]2(C)[C@H]1CC[C@@]21CCC(=O)O1 [canrenone],mean half-life of spironolactone metabolite,[1]; [17],16.5 h
same,canrenone proportion of metabolites after spironolactone,"[1]; multiple doses, ref Gardiner et al. 1989",about 23%
same,canrenone proportion of metabolites after spironolactone,"[1]; single dose, ref Merkus et al. 1983",about 15%
same,peak absolute plasma concentration,[1]; ref Gardiner et al. 1989,181 ng/mL
same,peak relative plasma concentration,[1]; ref Gardiner et al. 1989,23.3%
"C[C@]12CCC(=O)C=C1[C@@H]1C[C@@H]1[C@H]1[C@@H]3[C@@H]4C[C@@H]4[C@@]4(CCC(=O)O4)[C@@]3(C)CC[C@@H]12 [drospirenone, 1,2-dihydro-spirorenone]",potency relative to spironolactone on the MR in rats,MR,eight times more potent
"COC(=O)[C@@H]1CC2=CC(=O)CC[C@]2(C)[C@@]23O[C@@H]2C[C@@]2(C)[C@@H](CC[C@@]24CCC(=O)O4)[C@H]13 [eplerenone, 9-11α-epoxymexrenone]",cardiorenal protection,[5],only partial cardiorenal protection
same,natriuretic activity vs spironolactone,[6],rough equi-efficacy
same,incidence of serious hyperkalemia (≥6 mmol/L) vs placebo,[7]; P = 0.002,significantly higher
same,"primary endpoint, death from any cause or hospitalization for CV events","[7]; vs placebo, mean follow-up 16 months",significantly reduced
same,efficacy compared to 50 mg spironolactone twice daily,[8],50–75%
same,accumulation of drug equivalent concentration in kidneys compared with heart tissue,[9],≥ 3 fold
same,IC50,human MR,970 nM
same,active metabolites,[10]; ref Kolkhof & Borden 2012,no active metabolites
same,duration of natriuretic effect,[10]; [18],~ 10 h
same,half-life,[10]; [18],2.9 h
same,half-life,"[10]; steady state after multiple doses of 100 mg, ref Cook et al. 2003",4 h
same,bound fraction (plasma proteins),human plasma proteins; ref Inspra Prescribing Information 2002,about 50%
same,effect on S810L MR mutant,S810L MR mutant,paradoxically activate
"Cc1c(C(=O)Nc2ccc(S(C)(=O)=O)cc2)cn(CCO)c1-c1ccccc1C(F)(F)F [esaxerenone, (5S)-1-(2-hydroxyethyl)-4-methyl-N-[4-(methylsulfonyl)phenyl]-5-[2-(trifluoromethyl)phenyl]-1H-pyrrole-3-carboxamide]",antihypertensive effect,"[5]; chronic treatment, 0.5 mg/kg equivalent to spironolactone or eplerenone 100 mg/kg",dose-dependent antihypertensive effect
same,"reduction of proteinuria and renal hypertrophy, potency vs spironolactone and eplerenone",[5],superior potency
same,antihypertensive activity vs spironolactone or eplerenone,"DOCA/salt-loading rats; DOCA/salt-loading rats, ref Arai et al. 2015a",more pronounced antihypertensive activity
same,effect on hypertension and renal injury in DOCA rats,DOCA/salt-loading rats; ref Arai et al. 2016,not only prevented but also ameliorated
same,selectivity for MR over other steroid hormone receptors,[11],≥ 1000 fold
same,IC50,human MR,3.7 nM
"CC(=O)S[C@@H]1CC2=CC(=O)C=C[C@]2(C)[C@H]2CC[C@@]3(C)[C@@H]([C@@H]4C[C@@H]4[C@@]34CCC(=O)O4)[C@H]12 [mespirenone, 15β,16β-methylene-spironolactone]",natriuretic potency relative to spironolactone,"[12]; healthy volunteers, ref Losert et al. 1986",6 fold
C[C@]12CCC(=O)C=C1[C@@H]1C[C@@H]1[C@@H]1[C@@H]2CC[C@@]2(C)[C@H]1CC[C@@]21CCC(=O)O1 [prorenone],effect on nuclear translocation of the aldosterone receptor,aldosterone receptor,blocks nuclear translocation
"CC(=O)S[C@@H]1CC2=CC(=O)CC[C@]2(C)[C@H]2CC[C@@]3(C)[C@@H](CC[C@@]34CCC(=O)O4)[C@H]12 [spironolactone, 7α-acetylthio-17α-hydroxy-3-oxopregn-4-ene-21-carboxylic acid γ-lactone]",cardiorenal protection,[5],only partial cardiorenal protection
same,"tumor finding, 104-week rat study","rats; 10, 30 and 100 mg/kg/day, ref Aldactone NDA 2008",significant increases in hepatocellular adenomas and benign testicular and thyroid adenomas
same,"tumor finding, 78-week rat study","rats; male rats, 500 mg/kg, 78 weeks, ref Mayer et al. 1988",increased numbers of benign testicular adenomas
same,finding in chronic toxicity studies in rats,"rats; rat, in vivo",tumorigenic
same,tumorigenic or carcinogenic potential in chronic dog and monkey studies,dogs and monkeys,no tumorigenic or carcinogenic potential
same,plasma half-life,[1]; [17],less than 2 h
same,whole radioactivity in cardiac tissue,[13],below the detection limit
same,mortality in severe heart failure,[14],mortality reduction
same,protection from aldosterone-induced cardiac necrosis,[15],protected
same,bound to human plasma proteins,human plasma proteins; ref Chien et al. 1976,94%
same,effect on S810L MR mutant,S810L MR mutant,paradoxically activate
C[C@]12C=CC(=O)C=C1[C@@H]1C[C@@H]1[C@H]1[C@@H]3[C@@H]4C[C@@H]4[C@@]4(CCC(=O)O4)[C@@]3(C)CC[C@@H]12 [spirorenone],affinity for the rat androgen receptor,rat androgen receptor,practically no affinity
same,in vivo activity on urinary Na+/K+ ratio relative to spironolactone,urinary Na+/K+ ratio,8.6 times
same,affinity for the progesterone receptor vs spironolactone,progesterone receptor,higher affinity
same,"potency relative to spironolactone, urinary sodium excretion","[12]; single dose, healthy individuals, ref Seifert et al. 1982",at least 4 times
same,affinity for rat renal cytoplasmatic MR relative to spironolactone,[16],0.73 times
